Assay results as given in patent US9663496B2, “AMPK-activating heterocyclic compounds and methods for using the same” (Rigel Pharmaceuticals, Inc., priority 2010, dated 2017).
pEC50: −log10 of the molar value.

Target: AMPK
Assay: AMPK activation, enzyme-linked immunosorbent assay
Type: biochemical
Conditions: EC50 for AMPK activation, ELISA
Procedure, shortened: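 Test compounds were added, and kinase activation was then detected by immunoassay following established kit procedures.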

Row | SMILES | pEC50
1 | CC(=O)c1ccc(Oc2ccc(NC(=O)c3ccc(C(=O)N4CCC(C(=O)c5ccc(F)cc5F)CC4)nc3)cn2)cc1 [Compound 464, N-(6-(4-acetylphenoxy)pyridin-3-yl)-6-(4-(2,4-difluorobenzoyl)piperidine-1-carbonyl)nicotinamide] | > 6.30
2 | N#Cc1ccc(CN2CCC(NC(=O)c3ccc(C(=O)N4CCN(C(=O)c5ccc(C(=O)NC6CCN(Cc7ccc(C#N)cc7)CC6)nc5)CC4)cn3)CC2)cc1 [Compound 75, 5,5′-(piperazine-1,4-diylbis(oxomethylene)) bis(N-(1-(4-cyanobenzyl)piperidin-4-yl)picolinamide)] | 5.30 to 6.00
3 | N#Cc1ccc(O[C@H]2CC[C@H](NC(=O)c3ccc(C(=O)N4CCC(C(=O)c5ccc(F)cc5)CC4)cn3)CC2)cc1 [Compound 168, N-((trans)-4-(4-cyanophenoxy)cyclohexyl)-5-(4-(4-fluorobenzoyl)piperidine-1-carbonyl)picolinamide] | > 6.30
4 | N#Cc1ccc(CN2CCC3(CCN(C(=O)c4ccc(C(=O)N5CCN(Cc6ccc(F)cc6)CC5)cn4)CC3)C2)cc1 [Compound 15, 4-((8-(5-(4-(4-fluorobenzyl)piperazine-1-carbonyl)picolinoyl)-2,8-diazaspiro[4.5]decan-2-yl)methyl)benzonitrile] | 5.30 to 6.00
5 | O=C(NC1CCN(Cc2ccccc2)CC1)c1ccc(Nc2ccc(Oc3ccccc3)cc2)cn1 [Compound 113, N-(1-benzylpiperidin-4-yl)-5-(4-phenoxyphenylamino) picolinamide] | 5.30 to 6.00
6 | CS(=O)(=O)c1ccc(C(=O)C2CCN(C(=O)c3ccc(C(=O)NC4CCN(Cc5ccc(N6CCCC6)cc5)CC4)cn3)CC2)cc1 [Compound 229, 6-(4-(4-(methylsulfonyl)benzoyl)piperidine-1-carbonyl)-N-(1-(4-(pyrrolidin-1-yl)benzyl)piperidin-4-yl)nicotinamide] | 5.30 to 6.00
7 | N#Cc1ccc(CN2CCC(NC(=O)c3ccc(C(=O)N4CC[C@@H](Oc5ccc(F)cc5)C4)cn3)CC2)cc1 [Compound 278, (R)—N-(1-(4-cyanobenzyl)piperidin-4-yl)-5-(3-(4-fluorophenoxy)pyrrolidine-1-carbonyl)picolinamide] | > 6.30
8 | N#Cc1ccc(CN2CCC(NC(=O)c3ccc(C(=O)N4CCC(C(=O)c5ccc(F)cc5F)CC4)nc3)CC2)cc1 [Compound 346, N-(1-(4-cyanobenzyl)piperidin-4-yl)-6-(4-(2,4-difluorobenzoyl)piperidine-1-carbonyl)nicotinamide] | > 6.30
9 | COc1ccc(CN2CCC(N(C)C(=O)c3ccc(C(=O)N4CCC(C(=O)c5ccc(OC)cc5)CC4)nc3)CC2)cc1 [Compound 484, 6-(4-(4-methoxybenzoyl)piperidine-1-carbonyl)-N-(1-(4-methoxybenzyl)piperidin-4-yl)-N-methylnicotinamide] | > 6.30
10 | COc1ccc(OC2CCN(C(=O)c3ccc(C(=O)NC4CCN(Cc5ccc(C#N)cc5)CC4)cn3)CC2)c([N+](=O)[O-])c1 [Compound 378, N-(1-(4-cyanobenzyl)piperidin-4-yl)-6-(4-(4-methoxy-2-nitrophenoxy)piperidine-1-carbonyl)nicotinamide] | > 6.30
11 | O=C(NC1CCN(Cc2ccc(N3CCCC3)cc2)CC1)c1ccc(C(=O)N2CCC(Oc3ccc(F)cc3)CC2)cn1 [Compound 196, 5-(4-(4-fluorophenoxy)piperidine-1-carbonyl)-N-(1-(4-(pyrrolidin-1-yl)benzyl)piperidin-4-yl)picolinamide] | > 6.30
12 | CC(C)Oc1ccc(CN2CCC(NC(=O)c3ccc(C(=O)N4CCC(C(=O)c5ccc(N6CCCC6)cc5)CC4)nc3)CC2)cc1 [Compound 446, N-(1-(4-isopropoxybenzyl)piperidin-4-yl)-6-(4-(4-(pyrrolidin-1-yl)benzoyl)piperidine-1-carbonyl)nicotinamide] | > 6.30
13 | N#Cc1ccc(CN2CC[C@H](NC(=O)c3ccc(C(=O)N4CCN(Cc5ccc(F)cc5)CC4)cn3)C2)cc1 [Compound 123, (S)-N-(1-(4-cyanobenzyl)pyrrolidin-3-yl)-5-(4-(4-fluorobenzyl)piperazine-1-carbonyl)picolinamide] | > 6.30
14 | COc1cccc(CN2CCC(NC(=O)c3ccc(C(=O)N4CCC(Oc5ccc(S(C)(=O)=O)cc5)CC4)cn3)CC2)c1 [Compound 241, N-(1-(3-methoxybenzyl)piperidin-4-yl)-5-(4-(4-(methylsulfonyl)phenoxy)piperidine-1-carbonyl)picolinamide] | > 6.30
15 | N#Cc1ccc(CN2CCC(NC(=O)c3ccc(C(=O)N4CC[C@H](Oc5ccc(F)cc5)C4)cn3)CC2)cc1 [Compound 270, (S)—N-(1-(4-cyanobenzyl)piperidin-4-yl)-5-(3-(4-fluorophenoxy)pyrrolidine-1-carbonyl)picolinamide] | > 6.30
16 | COc1ccc(C(=O)C2CCN(C(=O)c3ccc(C(=O)Nc4ccc(Oc5ccc(C(=O)N(C)C)cc5)nc4)cn3)CC2)cc1 [Compound 480, N-(6-(4-(dimethylcarbamoyl)phenoxy)pyridin-3-yl)-6-(4-(4-methoxybenzoyl)piperidine-1-carbonyl)nicotinamide] | > 6.30

Row | SMILES | pEC50
17 | COc1ccc(CN2CCC(NC(=O)c3ccc(C(=O)N4CCC(C(=O)c5ccc(F)cc5F)CC4)cn3)CC2)cc1 [Compound 331, 5-(4-(2,4-difluorobenzoyl)piperidine-1-carbonyl)-N-(1-(4-methoxybenzyl)piperidin-4-yl)picolinamide] | > 6.30
18 | CN1CCN(c2ccc(C(=O)C3CCN(C(=O)c4ccc(C(=O)NC5CCN(Cc6ccc(C#N)cc6)CC5)nc4)CC3)cc2)CC1 [Compound 380, N-(1-(4-cyanobenzyl)piperidin-4-yl)-5-(4-(4-(4-methylpiperazin-1-yl)benzoyl)piperidine-1-carbonyl)picolinamide] | > 6.30
19 | CC(=O)c1ccc(OC2CCN(C(=O)c3ccc(C(=O)Nc4ccc(Oc5ccc(F)cc5)nc4)nc3)CC2)cc1 [Compound 359, 5-(4-(4-acetylphenoxy)piperidine-1-carbonyl)-N-(6-(4-fluorophenoxy)pyridin-3-yl)picolinamide] | > 6.30
20 | CC(=O)c1ccc(OC2CCN(C(=O)c3ccc(C(=O)Nc4ccc(Oc5ccc(F)cc5)nc4)cn3)CC2)cc1 [Compound 395, 6-(4-(4-acetylphenoxy)piperidine-1-carbonyl)-N-(6-(4-fluorophenoxy)pyridin-3-yl)nicotinamide] | > 6.30
21 | N#Cc1ccc(CN2CCC(NC(=O)c3ncc(C(=O)N4CCN(Cc5ccc(F)cc5)CC4)cc3C#CCNC(=O)COCCOCCOCCOCCNC(=O)CCCC[C@@H]3SC[C@@H]4NC(=O)N[C@@H]43)CC2)cc1 [Compound 159, N-(1-(4-cyanobenzyl)piperidin-4-yl)-3-(5,20-dioxo-24-((3aS,4S,6aR)-2-oxohexahydro-1H-thieno[3,4-d]imidazol-4-yl)-7,10,13,16-tetraoxa-4,19-diazatetracos-1-ynyl)-5-(4-(4-fluorobenzyl)piperazine-1-carbonyl)picolinamide] | 5.30 to 6.00
22 | CS(=O)(=O)c1ccc(OC2CCN(C(=O)c3ccc(C(=O)NC4CCC(Oc5ccc(C#N)cc5)CC4)cn3)CC2)cc1 (centres unmarked) [Compound 398, N-(4-(4-cyanophenoxy)cyclohexyl)-6-(4-(4-(methylsulfonyl)phenoxy)piperidine-1-carbonyl)nicotinamide] | > 6.30
23 | O=C(N[C@@H]1CCNC[C@@H]1F)c1ccc(C(=O)N2CCN(Cc3ccc(F)cc3)CC2)cn1 (relative stereo) [Compound 102, 5-(4-(4-fluorobenzyl)piperazine-1-carbonyl)-N-(cis-3-fluoropiperidin-4-yl)picolinamide] | 5.00 to 5.30
24 | COc1ccc(C(=O)C2CCN(C(=O)c3ccc(C(=O)N[C@H]4CC[C@@H](Oc5ccc(F)cc5)CC4)nc3)CC2)cc1 [Compound 311, N-((cis)-4-(4-fluorophenoxy)cyclohexyl)-5-(4-(4-methoxybenzoyl)piperidine-1-carbonyl)picolinamide] | > 6.30
25 | O=C(c1ccc(C(=O)N2CCN(CCc3ccccc3)CC2)nc1)N1CCN(Cc2ccc(F)cc2)CC1 [Compound 88, (4-(4-fluorobenzyl)piperazin-1-yl)(6-(4-phenethylpiperazine-1-carbonyl)pyridin-3-yl)methanone] | 5.30 to 6.00
26 | N#Cc1ccc(CN2CCC(NC(=O)c3ccc(C(=O)N4CCC(Oc5ccc(C#N)cc5)CC4)nc3)CC2)cc1 [Compound 323, N-(1-(4-cyanobenzyl)piperidin-4-yl)-6-(4-(4-cyanophenoxy)piperidine-1-carbonyl)nicotinamide] | > 6.30
27 | CC(C)N1CCN(C(=O)c2ccc(C(=O)N3CCN(CCc4ccccc4)CC3)nc2)CC1 [Compound 91, (4-isopropylpiperazin-1-yl)(6-(4-phenethylpiperazine-1-carbonyl)pyridin-3-yl)methanone] | < 5.00
28 | COc1ccc(C(=O)C2CCN(C(=O)c3ccc(C(=O)NC4CCN(Cc5cc(F)cc(F)c5)CC4)nc3)CC2)cc1 [Compound 287, N-(1-(3,5-difluorobenzyl)piperidin-4-yl)-5-(4-(4-methoxybenzoyl)piperidine-1-carbonyl)picolinamide] | > 6.30
29 | N#Cc1ccc(CN2CCC(NC(=O)c3ccc(C(=O)N4CCC(c5ccc(Cl)cc5)CC4)cn3)CC2)cc1 [Compound 134, 5-(4-(4-chlorophenyl)piperidine-1-carbonyl)-N-(1-(4-cyanobenzyl)piperidin-4-yl)picolinamide] | > 6.30
30 | CC(C)S(=O)(=O)c1ccc(N2CCN(C(=O)c3ccc(C(=O)NC4CCN(Cc5ccc(C#N)cc5)CC4)nc3)CC2)cc1 [Compound 251, N-(1-(4-cyanobenzyl)piperidin-4-yl)-5-(4-(4-(isopropylsulfonyl)phenyl)piperazine-1-carbonyl)picolinamide] | > 6.30
31 | COc1ccc(CN2CCC(NC(=O)c3ccc(C(=O)N4CCC(Oc5ccc(F)cc5)CC4)cn3)CC2)cc1 [Compound 161, 5-(4-(4-fluorophenoxy)piperidine-1-carbonyl)-N-(1-(4-methoxybenzyl)piperidin-4-yl)picolinamide] | > 6.30
32 | N#Cc1ccc(CN2CCC(NC(=O)c3ccc(C(=O)N4CCC(C(=O)c5ccc(F)cc5)CC4)cn3)CC2)cc1 [Compound 136, N-(1-(4-cyanobenzyl)piperidin-4-yl)-5-(4-(4-fluorobenzoyl)piperidine-1-carbonyl)picolinamide] | > 6.30
